In patent US20060025478A1, “Medicine for prevention or treatment of diabetes” (priority 2004, published 2006):

System: C57BL/KsJ db/db mice
Test: Hypoglycemic effect of single or combined administration in db/db mice (plasma glucose concentration)
Type: in vivo, mouse
Settings: for Decreasing effect for the plasma glucose concentration (in words) / Relative index (mean plasma glucose of group / mean of control group) / Decreasing rate (of plasma glucose concentration vs control group): 14th day; for Decreasing effect for the plasma glucose concentration (in words): compared with db/+m normal mouse (187±16); for Relative index (mean plasma glucose of group / mean of control group) / Decreasing rate (of plasma glucose concentration vs control group) / Plasma glucose concentration: oral once a day for 14 days; for Decreasing rate (of plasma glucose concentration vs control group): (control mean − group mean)/control mean ×100; for Plasma glucose concentration: plasma 2 hours after administration on the 14th day, mean±standard deviation for 6 mice, control group 499 ± 81
Protocol: As test animals, C57BL/KsJ db/db mice were used, which were created in Jackson Laboratory (USA) and known as an obesity, hyperlipemia, hyperinsulinemia, and insulin-resistant model (Journal of Clinical Investigation, 85, pp 962-967, 1990). Blood was collected from the orbital venous plexus of each 7-week-old db/db mouse using a heparin-treated capillary tube, and centrifugation was performed to collect plasma. Thereafter, the plasma glucose concentration (Glucose CII-Test Wako (Wako Pure Chemical Industries, Ltd.)), the insulin concentration (Lebis Insulin Kit: for mouse-T (SHIBAYAGI)), and the triglyceride concentration (Triglyceride E-Test Wako (Wako Pure Chemical Industries, Ltd.)) were measured for classification. The classification was performed so that distribution of each measurement item is uniform for each group by block allocation based on many variables in which the plasma glucose concentration is most emphasized using the measured values of the plasma glucose concentration, the body weight, the insulin concentration, and the triglyceride concentration. […] Two hours after the administration of the medicines on the 14th day from the beginning day of the administration, blood was collected from the orbital venous plexus, and the plasma thereof was collected to measure the plasma glucose concentration. […] Each plasma glucose concentration is expressed as mean±standard deviation for 6 mice of each group. Each decreasing rate is calculated from ((mean of plasma glucose concentration of control group)−(mean of plasma glucose concentration of each group))/(mean of plasma glucose concentration of control group)×100, while each relative index is calculated from (mean of plasma glucose concentration of each group)/(mean of plasma glucose concentration of control group)

Compound	Decreasing effect for the plasma glucose concentration (in words)	Relative index (mean plasma glucose of group / mean of control group)	Decreasing rate (of plasma glucose concentration vs control group)	Plasma glucose concentration
CCc1ccc(CCOc2ccc(CC3SC(=O)NC3=O)cc2)nc1.Cl (centres unmarked) [Pioglitazone hydrochloride, 5-[4-[2-(5-Ethyl-2-pyridyl)ethoxy]benzyl]thiazolidine-2,4-dione hydrochloride]	insufficient	0.80	20%	401 ± 173 mg/dL
O=C([O-])C(Cl)(Cl)CCCCCCCCCCc1ccc(Cl)cc1.[Na+] [sodium 2,2-dichloro-12-(4-chlorophenyl)-dodecanoate]	insufficient	0.92	8%	459 ± 77 mg/dL
